Source: patent US20100120690A1, “Polypeptides Having Antimicrobial Activity and Polynucleotides Encoding Same” (Novozymes Adenium Biotech A/S, priority 2005, published 2010)

Assays:
Assay type in all cases: cell-based
[1] = test system: Staphylococcus aureus, MRSA ST5 (2001); assay: MIC, NCCLS/CLSI guidelines (Example 5), strain D; conditions: relative to wildtype Plectasin; average of two independent experiments
How it was run: (§1)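 Relative MIC category versus wild-type plectasin (0 >100%, 1 80-100%, 2 50-80%, 3 <50%), mean of two experiments. Determined per CLSI broth guidelines with expressed, purified peptides.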

[2] = test system: Staphylococcus carnosus ATCC51365; assay: Yeast screening assay: radial diffusion assay of yeast supernatants; design: key: An activity of 3 is better than Plectasin; An activity of 2 corresponds to the activity of Plectasin; 1 is worse than Plectasin; conditions: yeast supernatant, clearing zone in radial diffusion assay
How it was run: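 Activity scores (1 worse, 2 equal, 3 better than wild-type plectasin) come from the size of the radial-diffusion clearing zone against S. carnosus at 5×10^5 cfu/mL. Test samples were culture supernatants of yeast transformants induced with galactose for 3 days at 30 °C, and plates were developed at 37 °C with MTT.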

[3] = test system: Staphylococcus aureus, ATCC 25923; assay: MIC, NCCLS/CLSI guidelines (Example 5), strain B; conditions: relative to wildtype Plectasin; average of two independent experiments
How it was run: (§2)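 Recombinant plectasin variants, expressed and purified; MIC per NCCLS/CLSI; n=2 independent expts, averaged; reported as category vs wild-type MIC (0 >100%, 1 80-100%, 2 50-80%, 3 <50%).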

[4] = test system: panel of 6 different strains of Staphylococcus aureus; assay: Average MIC, NCCLS/CLSI guidelines using caMHB (Example 6); conditions: average over 6 S. aureus strains, duplicate; MIC above 32 counted as 64; read after 18-24 hours at 37° C.
How it was run: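 Six Staphylococcus aureus strains, MSSA and MRSA, were exposed in duplicate to peptide dilutions from 32 down to 0.03 microgram/mL in caMHB following CLSI guidance. Growth was scored after 18-24 h incubation at 37° C. The tabulated value is the mean MIC, with 64 used for any MIC >32 micrograms/mL.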

[5] = test system: Staphylococcus aureus, ATCC 29737; assay: MIC, NCCLS/CLSI guidelines (Example 5), strain C; conditions: relative to wildtype Plectasin; average of two independent experiments
How it was run: as §2

[6] = test system: Staphylococcus aureus, ATCC 29213; assay: MIC, NCCLS/CLSI guidelines (Example 5), strain A; conditions: relative to wildtype Plectasin; average of two independent experiments
How it was run: as §2

[7] = test system: Staphylococcus aureus, MRSA ST80 (2003); assay: MIC, NCCLS/CLSI guidelines (Example 5), strain E; conditions: relative to wildtype Plectasin; average of two independent experiments
How it was run: as §1

Substance | Relative MIC, strain D [1] | Activity (antimicrobial activity relative to the activity of plectasin) [2] | Relative MIC, strain B [3] | Average MIC [4] [micrograms/mL] | Relative MIC, strain C [5] | Relative MIC, strain A [6] | Relative MIC, strain E [7]
GFGCKGPWDEDDMQCHNHCKSIKGYRGGYCAKGGFVCKCY [N5K + K26R] | 2 (50-80% of Plectasin wildtype MIC) | 3 | 2 (50-80% of Plectasin wildtype MIC) | 9 | 3 (<50% of Plectasin wildtype MIC) | 1 (80-100% of Plectasin wildtype MIC) | 2 (50-80% of Plectasin wildtype MIC)
GFGCNGPWDEDDMRCHNHCKSIKGYRGGYCAKGGFVCRCY [Q14R + K26R + K38R] | 3 (<50% of Plectasin wildtype MIC) | 3 | 3 (<50% of Plectasin wildtype MIC) | 2 | 3 (<50% of Plectasin wildtype MIC) | 3 (<50% of Plectasin wildtype MIC) | 3 (<50% of Plectasin wildtype MIC)
GFGCNGPWDEDDMRCHNHCKSIRGYRGGYCAKGGFVCKCY [Q14R + K23R + K26R] | 3 (<50% of Plectasin wildtype MIC) | 2 | 3 (<50% of Plectasin wildtype MIC) | 2 | 3 (<50% of Plectasin wildtype MIC) | 3 (<50% of Plectasin wildtype MIC) | 3 (<50% of Plectasin wildtype MIC)
GFGCNGPWDEDDMRCHNHCRSIKGYKGGYCAKGGFVCKCY [Q14R + K20R] | 3 (<50% of Plectasin wildtype MIC) | 2 | 3 (<50% of Plectasin wildtype MIC) | 3 | 3 (<50% of Plectasin wildtype MIC) | 3 (<50% of Plectasin wildtype MIC) | 3 (<50% of Plectasin wildtype MIC)
GFGCNGPWDEGDMQCHNHCKSIKGYKGGYCARGGFVCKCY [D11G + K32R] | 2 (50-80% of Plectasin wildtype MIC) | 3 | 3 (<50% of Plectasin wildtype MIC) | 5 | 3 (<50% of Plectasin wildtype MIC) | 1 (80-100% of Plectasin wildtype MIC) | 3 (<50% of Plectasin wildtype MIC)
GFGCNGPWDENDMQCHNHCKSIKGYKGGYCAKGGFVCKCY [Mutation D11N] | 2 (50-80% of Plectasin wildtype MIC) | 3 | 3 (<50% of Plectasin wildtype MIC) | 6 | 2 (50-80% of Plectasin wildtype MIC) | 2 (50-80% of Plectasin wildtype MIC) | 3 (<50% of Plectasin wildtype MIC)
GFGCNGPWGEDDMRCHNHCKSIRGYKGGYCAKGGFVCKCY [D9G + Q14R + K23R] | 3 (<50% of Plectasin wildtype MIC) | 3 | 3 (<50% of Plectasin wildtype MIC) | 2 | 3 (<50% of Plectasin wildtype MIC) | 3 (<50% of Plectasin wildtype MIC) | 3 (<50% of Plectasin wildtype MIC)
GFGCRGPWDEDDMQCHNHCKSIKGYKGGYCAKGGFVCKCY [Mutation N5R] | 2 (50-80% of Plectasin wildtype MIC) | 3 | 2 (50-80% of Plectasin wildtype MIC) | 8 | 2 (50-80% of Plectasin wildtype MIC) | 1 (80-100% of Plectasin wildtype MIC) | 2 (50-80% of Plectasin wildtype MIC)
GFGCSGPWDEDDMRCHNHCKAIRGYKGGYCAKGGFVCKCY [N5S + Q14R + S21A + K23R] | 2 (50-80% of Plectasin wildtype MIC) | 3 | 3 (<50% of Plectasin wildtype MIC) | 9 | 2 (50-80% of Plectasin wildtype MIC) | 1 (80-100% of Plectasin wildtype MIC) | 0 (>100% of Plectasin wildtype MIC)
N5S + D9S + M13L + Q14R + N17V + A31S: variant of Plectasin (SEQ ID NO: 1) (GFGCSGPWSEDDLRCHVHCKSIKGYKGGYCSKGGFVCKCY) | 3 (<50% of Plectasin wildtype MIC) |  | 3 (<50% of Plectasin wildtype MIC) | 2 | 3 (<50% of Plectasin wildtype MIC) | 3 (<50% of Plectasin wildtype MIC) | 3 (<50% of Plectasin wildtype MIC)
N5S + D9S + M13V + N17R: variant of Plectasin (SEQ ID NO: 1) (GFGCSGPWSEDDVQCHRHCKSIKGYKGGYCAKGGFVCKCY) | 3 (<50% of Plectasin wildtype MIC) |  | 3 (<50% of Plectasin wildtype MIC) | 2 | 3 (<50% of Plectasin wildtype MIC) | 3 (<50% of Plectasin wildtype MIC) | 3 (<50% of Plectasin wildtype MIC)
N5S + D9S: variant of Plectasin (SEQ ID NO: 1) (GFGCSGPWSEDDMQCHNHCKSIKGYKGGYCAKGGFVCKCY) | 2 (50-80% of Plectasin wildtype MIC) |  | 3 (<50% of Plectasin wildtype MIC) | 6 | 3 (<50% of Plectasin wildtype MIC) | 0 (>100% of Plectasin wildtype MIC) | 3 (<50% of Plectasin wildtype MIC)
